This note sets out measurements from patent publication US20070021509A1, “Phosphate transport inhibitors” (priority 2001, published 2007).

The subject of assay [1] is glucose uptake into isolated rabbit intestinal rings. The assay is described as follows: Ex vivo glucose uptake into isolated rabbit intestinal rings. Set-up: concentration or dose not given beside the values. The note with it: Table 14. The format is cell-based. As for the experimental part:
For the ex vivo assay, ^33P uptake into isolated rabbit intestinal rings was measured using a modification of the method described by Crane and Mandelstam [Robert K. Crane and Paul Mandelstam “The active transport of sugars by various preparations of hamster intestine” Biochim. Biophys. Acta 45: 460-476, 1960; the contents of which are incorporated herein by reference]. Male New Zealand rabbits 2-3 kg in weight were aeuthinized by an i.v. injection of Fatal Pluse®. A midline laparotomy was performed and the duodenum from the pyloric junction to the ligament of Trietz isolated and excised. Segments of bowel were everted, cut into 2-4 mm ring-like pieces and placed into a modified Hepes-Buffered Ringer's solution in which Na^+ had been iso-osmotically replaced with N-methyl-D-glucamine. […] […] Tissues were then solublized by digesting them in a 5 ml volume of Solvable® tissue solubilizer overnight at 50° C. and ^33P levels determined by scintillation counting. Sodium-dependent uptake of ^33P was calculated by determining the difference in uptake between rings incubated in the presence and absence of Na^+ in the Hepes-Buffered Ringer's solution. Results are reported as the percentage inhibition of phosphate and glucose uptake, respectively.

Assay [2] has as its system glucose transport (rabbit intestinal BBMV). The assay is described as follows: In vitro BBMV assay, glucose transport inhibiting activity. The format is biochemical. The note with it: Table 14. Here is the method:
In the remaining wells, used for compound containing reactions, are placed MAX Control Buffer. The Hot Stock Plate was stored at room temperature. To each well of an appropriate 96-well filter plate was added approximately 200 μL Stop Buffer to pre-wet the filters for at least 15 minutes prior to assay. The “Compound Plate” was set-up by loading appropriate wells of a 96-well, polypropylene, V-bottom plate with compound solutions. This could be for testing inhibition at a single “screening” concentration, or to measure the potency of compounds by dose-response analysis at the appropriate concentrations. A “BBMV Plate” was set up by loading a 96-well, polypropylene, V-bottom plate with BBMVs at 0.5-2.0 mg/mL (prepared as described above). The BBMV Plate was kept on ice until just prior to the assay. The reaction was initiated by aspiration of the hot uptake buffers (19 uL), from the Hot Stock Plate, and the compound solutions (2 uL), from the Compound Plate, dispensing into an empty 96-well V-bottom plate (Assay Plate), then immediately aspirating the BBMVs (19 μL), from the BBMV Plate and dispensing into the same Assay Plate. The addition of the BBMVs to the assay plate marked the reaction start time. After 15 minutes, the reaction was quenched by addition of 200 μL of STOP buffer from a reservoir. The Stop Buffer was aspirated by vacuum from the wells, through the filters, of the pre-soaked filter plate using a filter plate manifold. The quenched reactions were aspirated and transferred to the filter plate under vacuum. The filters were washed 2 times with 200 μL STOP buffer under vacuum. The filter plate was removed, dried, and the bottom of the filter plate was sealed. To each well of the filter plate was added 50 μL of scintillant (Microscint-20). A top seal was then applied to the filter plate. The plate was incubated for approximately 20 minutes before reading for ^33P CPM on a scintillation counter (i.e., TopCount-Packard Instruments). Percent inhibition was calculated by comparing the CPM values from compound containing wells to the MAX and MIN controls on the same plate using the following formula. 1−((CPM−MIN)/(MAX−MIN)) IC50 values were calculated from non-linear regression analysis within an appropriate software package (i.e., Prism GraphPad).
The phosphate transport inhibitors indicated in Table 14 were tested in both an in vitro and an ex vivo assay to determine their activity. The in vitro assay is identical to the assay described in Example 66, with the exception that the glucose transport inhibiting activity of the compounds was also measured. Results are reported as the IC50 value for the various types of inhibition. A preferred compound will have high phosphate transport inhibiting activity, but little or no glucose transport inhibiting activity.

Where only a bound is given, the exact number is not on record here.

For orientation: IC50 means the point on the concentration scale where inhibition reaches its midpoint. Regarding `COc1ccccc1CNC(=O)c1cc(Br)ccc1NS(=O)(=O)c1ccc(OC(F)(F)F)cc1` [Example 70, 5-Bromo-N-(2-methoxy-benzyl)-2-(4-trifluoromethoxy-benzenesulfonylamino)-benzamide], the “% Glucose Transport Inhibition” value in assay [1] was found to be 8%. The concentration for half-maximal inhibition (IC50) in assay [2] is greater than 100 µM.

Turning to `O=C(NCc1ccc(F)cc1)c1cc(Br)ccc1NS(=O)(=O)c1ccc(OC(F)(F)F)cc1` [Example 71, 5-Bromo-N-(4-fluoro-benzyl)-2-(4-trifluoromethoxy-benzenesulfonylamino)-benzamide], the “% Glucose Transport Inhibition” value in assay [1] came out at 26%. In assay [2], this molecule came in with a concentration for half-maximal inhibition (IC50) greater than 100 µM.

Consider `O=C(NCc1ccc(OC(F)(F)F)cc1O)c1cc(Br)ccc1NS(=O)(=O)c1ccc(OC(F)(F)F)cc1` [Example 75, 5-Bromo-N-(2-hydroxy-4-trifluoromethoxy-benzyl)-2-(4-trifluoromethoxy-benzenesulfonylamino)-benzamide], for which, in assay [1], the “% Glucose Transport Inhibition” value worked out at 0%. In assay [2], this molecule came in with an IC50 of 80 µM.

`COc1ccc(F)cc1CNC(=O)c1cc(Br)ccc1NS(=O)(=O)c1ccc(OC(F)(F)F)cc1` [Example 78, 5-Bromo-N-(5-fluoro-2-methoxy-benzyl)-2-(4-trifluoromethoxy-benzenesulfonylamino)-benzamide]: the “% Glucose Transport Inhibition” value in assay [1] turned out to be 4%. Moreover, in assay [2], the IC50 came out at 100 µM.

Regarding `O=C(Nc1cccc(C(F)(F)F)c1)Nc1cccc(C(F)(F)F)c1` [Example 82, 1,3Bis(3-Trifluoromethylphenyl)urea], the “% Glucose Transport Inhibition” value in assay [1] came out at 26%. The midpoint of inhibition in assay [2], the IC50, lay at 54 µM.

Turning to `O=C(Nc1cc(C(F)(F)F)cc(C(F)(F)F)c1)NC1CCCCC1` [Example 83, 1-Cyclohexyl-3-(3,5-Bistrifluoromethyl-phenyl)-urea], the “% Glucose Transport Inhibition” value in assay [1] came to 0%. Further, half-maximal inhibition in assay [2] (IC50) required 82 µM.

In the case of `Cn1nc(C(C)(C)C)cc1C(=O)Nc1ccc(C(F)(F)F)cc1` [Example 84, 5-tert-Butyl-2-methyl-2H-pyrazole-3-carboxylic acid (4-trifluoromethyl-phenyl)-amide], the “% Glucose Transport Inhibition” value in assay [1] is reported as 21%. Half-maximal inhibition in assay [2] (IC50) required 99 µM.

With `O=C(Nc1cccc(C(F)(F)F)c1)Nc1cc(Cl)ccc1Cl` [Example 85, 1-(2,5-Dichloro-phenyl)-3-(3-trifluoromethyl-phenyl)-urea], the “% Glucose Transport Inhibition” value in assay [1] was 0%. Further, in assay [2], the IC50 was greater than 100 µM.

Regarding `O=C(Nc1cccc(C(F)(F)F)c1)Nc1ccc(F)c([N+](=O)[O-])c1` [Example 86, 1-(4-Fluoro-3-nitro-phenyl)-3-(3-trifluoromethyl-phenyl)-urea], the “% Glucose Transport Inhibition” value in assay [1] came to 4%. This molecule registered a concentration for half-maximal inhibition (IC50) in assay [2] of 34 µM.

`Cl.N=C(Nc1ccc(Br)c(C(F)(F)F)c1)Nc1ccc(Br)c(C(F)(F)F)c1` [Example 87, N,N′-Bis-(4-bromo-3-trifluoromethyl-phenyl)-guanidine Hydrochloride]: in assay [1], the “% Glucose Transport Inhibition” value stood at 3%. This molecule displayed an IC50 in assay [2] of 94 µM.

Consider `Cl.N=C(Nc1cc(C(F)(F)F)cc(C(F)(F)F)c1)Nc1cc(C(F)(F)F)cc(C(F)(F)F)c1` [Example 88, N,N′-Bis-(3,5-bis-trifluoromethyl-phenyl)-guanidine Hydrochloride], for which the “% Glucose Transport Inhibition” value in assay [1] came to 0%. Further, the IC50 in assay [2] was 63 µM.

Take `Cl.N=C(Nc1ccc(Cl)c(C(F)(F)F)c1)Nc1ccc(Cl)c(C(F)(F)F)c1` [Example 89, N,N′-Bis-(4-chloro-3-trifluoromethyl-phenyl)-guanidine Hydrochloride]: the “% Glucose Transport Inhibition” value in assay [1] is 0%. Moreover, the IC50 in assay [2] is 88 µM.

Consider `Cl.N=C(Nc1ccc(C(F)(F)F)c(C(F)(F)F)c1)Nc1ccc(C(F)(F)F)c(C(F)(F)F)c1` [Example 90, N,N′-Bis-(3,4-bis-trifluoromethyl-phenyl)-guanidine Hydrochloride], for which the “% Glucose Transport Inhibition” value in assay [1] is 0%. In assay [2], this molecule displayed a concentration for half-maximal inhibition (IC50) greater than 100 µM.
